One may read the melting point as the temperature, or range, at which the solid turns liquid.

Data set [1] relates to SMN2 minigene mRNA (SMN2-A minigene construct). Briefly: SMN2 minigene mRNA splicing RT-qPCR assay in cultured cells. Format: cell-based, human. Particulars: Homo sapiens, HEK293-H; HEK293H cells stably transfected with SMN2-A minigene, 24 hours, 7-point concentration data; concentration giving 1.5-fold SMN2 full length mRNA relative to vehicle-treated cells; read-out: EC1.5x for production of full length SMN2 mRNA. In short, it runs like this: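 Full-length SMN2 minigene mRNA, measured by exon 7/luciferase-specific RT-qPCR that excludes endogenous SMN1/SMN2, was normalized to GAPDH and expressed relative to vehicle-treated cells via modified ΔΔCt. Stably transfected HEK293H cells received compound (7-point, 3.16-fold series, duplicates) for 24 h at 37 °C.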
(Real-time PCR tracks product formation cycle by cycle.)

The test system of a further data set is Smn protein. Briefly: Smn protein assay (HTRF) in cultured cells (SMA patient fibroblasts GM03813). Conditions: 48 hours; for EC1.5x for Smn protein expression: SMA patient fibroblast cells (GM03813), HTRF, 7-point concentration data, concentration producing 1.5 times Smn protein vs DMSO vehicle control; for maximum fold (Fold) increase of Smn protein: SMA patient fibroblast cells, 7-point concentration curve, relative to vehicle control. Format: cell-based, human. The method, boiled down:
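SMA patient fibroblasts (GM03813) were treated 48 h at 37° C with a 7-point, 3.16-fold compound series in triplicate, then lysed in RIPA. Smn was read by HTRF (anti-SMN d2/kryptate, 665/620 nm ratio). ΔF versus blank was divided by vehicle ΔF to give fold Smn increase.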
In general terms: Time-resolved FRET reads energy transfer from a long-lived donor to a nearby acceptor.

`CCN1CCCN(c2ccc3cc(-c4cn5ccccc5n4)c(=O)oc3n2)CC1` [Cpd 127, 7-(4-ethyl-1,4-diazepan-1-yl)-3-(imidazo[1,2-a]pyridin-2-yl)-2H-pyrano[2,3-b]pyridin-2-one] yielded a melting point of 285 to 288 °C. Besides, the EC (1.5-fold) in data set [1] was not above 0.1 µM. In the data set with Smn protein, the “EC1.5x for Smn protein expression” value is “*** (an EC1.5× between >0.3 μM and ≦1 μM is indicated by three stars (***))”; the “maximum fold (Fold) increase of Smn protein” value (shortened to “maximum fold (Fold) increase”) is “**** (a fold increase between >1.5 and ≦1.65 is indicated by four stars (****))”.

For `O=c1oc2nc(N3CCN(CC(O)CO)CC3)ccc2cc1-c1nc2ccccc2s1` (centres unmarked) [Cpd 26, 3-(1,3-benzothiazol-2-yl)-7-[4-(2,3-dihydroxypropyl)piperazin-1-yl]-2H-pyran [2,3-b]pyridin-2-one], the melting point lay in the range of 236 to 239 °C. The EC (1.5-fold) in data set [1] was 1 to 3 µM. The “maximum fold (Fold) increase” value in the data set on Smn protein is “** (a fold increase between >1.2 and ≦1.35 is indicated by two stars (**))”.

Turning to `Cc1ccc2nc(-c3cc4ccc(N5C[C@@H]6C[C@H]5CN6C)nc4oc3=O)cn2c1` [Cpd 125, 7-[(1S,4S)-5-methyl-2,5-diazabicyclo[2.2.1]hept-2-yl]-3-(6-methylimidazo[1,2-a]pyridin-2-yl)-2H-pyrano[2,3-b]pyridin-2-one], the melting point is 211 to 213 °C. The EC (1.5-fold) in data set [1] is 0.1 to 0.3 µM. In addition, in the data set with Smn protein, the “EC1.5x for Smn protein expression” value was “**** (an EC1.5×≦0.3 μM is indicated by four stars (****))” and the “maximum fold (Fold) increase” value is on record as “***** (a fold increase >1.65 is indicated by five stars (*****))”.

On to `Cc1ccn2cc(-c3cc4ccc(N5CCNCC5)nc4oc3=O)nc2c1.Cl` [Cpd 29, 3-(7-methylimidazo[1,2-a]pyridin-2-yl)-7-(piperazin-1-yl)-2H-pyrano[2,3-b]pyridin-2-one hydrochloride], for which the melting point was in the range of 240 to 244 °C. For the same compound, the EC (1.5-fold) in data set [1] is not above 0.1 µM. Also, the “maximum fold (Fold) increase” value in the data set with Smn protein was “*** (a fold increase between >1.35 and ≦1.5 is indicated by three stars (***))”.

`Cl.O=c1oc2nc(N3CCCNCC3)ccc2cc1-c1cn2cccc(Cl)c2n1` [Cpd 47, 3-(8-chloroimidazo[1,2-a]pyridin-2-yl)-7-(1,4-diazepan-1-yl)-2H-pyrano[2,3-b]pyridin-2-one hydrochloride] gave a melting point of 252 to 255 °C. Besides, the EC (1.5-fold) in data set [1] was not above 0.1 µM. Further, in the data set with Smn protein, the “EC1.5x for Smn protein expression” value is “**** (an EC1.5×≦0.3 μM is indicated by four stars (****))” and the “maximum fold (Fold) increase” value is on record as “***** (a fold increase >1.65 is indicated by five stars (*****))”.

`Cl.O=c1oc2nc(N3CCCNCC3)ccc2cc1-c1nc2ccccc2s1` [Cpd 51, 3-(1,3-benzothiazol-2-yl)-7-(1,4-diazepan-1-yl)-2H-pyrano[2,3-b]pyridin-2-one hydrochloride] displayed a melting point of 284 to 286 °C. Besides, in data set [1], the EC (1.5-fold) was 0.3 to 1 µM. For the same compound, the “maximum fold (Fold) increase” value with Smn protein is “** (a fold increase between >1.2 and ≦1.35 is indicated by two stars (**))”.

With `Cc1cn2cc(-c3cc4ccc(N5CCCNCC5)nc4oc3=O)nc2c(C)n1.Cl` [Cpd 89, 7-(1,4-diazepan-1-yl)-3-(6,8-dimethylimidazo[1,2-a]pyrazin-2-yl)-2H-pyrano[2,3-b]pyridin-2-one hydrochloride], the melting point fell in the range of 273 to 276 °C. The EC (1.5-fold) in data set [1] is not above 0.1 µM. Moreover, in the data set on Smn protein, the “EC1.5x for Smn protein expression” value is recorded as “**** (an EC1.5×≦0.3 μM is indicated by four stars (****))”; the “maximum fold (Fold) increase” value is “**** (a fold increase between >1.5 and ≦1.65 is indicated by four stars (****))”.

Compound `Cc1ccn2cc(-c3cc4ccc(N5C[C@@H](C)N[C@@H](C)C5)nc4oc3=O)nc2c1` [Cpd 100, 7-[(3R,5S)-3,5-dimethylpiperazin-1-yl]-3-(7-methylimidazo[1,2-a]pyridin-2-yl)-2H-pyrano[2,3-b]pyridin-2-one] gave a melting point of 246 to 249 °C. Also, in data set [1], the EC (1.5-fold) was not above 0.1 µM. Also, in the data set on Smn protein, the “maximum fold (Fold) increase” value is “*** (a fold increase between >1.35 and ≦1.5 is indicated by three stars (***))”.

As to `C[C@@H]1CN(c2ccc3cc(-c4nc5c(Cl)cccc5s4)c(=O)oc3n2)C[C@H](C)N1C` [Cpd 71, 3-(4-chloro-1,3-benzothiazol-2-yl)-7-[(3R,5S)-3,4,5-trimethylpiperazin-1-yl]-2H-pyrano[2,3-b]pyridin-2-one], the melting point lay within 286 to 288 °C. The EC (1.5-fold) in data set [1] is 0.1 to 0.3 µM. In addition, in the data set on Smn protein, the “maximum fold (Fold) increase” value is “** (a fold increase between >1.2 and ≦1.35 is indicated by two stars (**))”.

Regarding `Cc1ccn2cc(-c3cc4ccc(N5C[C@H](C)N(C)C[C@H]5C)nc4oc3=O)nc2c1` [Cpd 96, 3-(7-methylimidazo[1,2-a]pyridin-2-yl)-7-[(2R,5S)-2,4,5-trimethylpiperazin-1-yl]-2H-pyrano[2,3-b]pyridin-2-one], the melting point lay within 114 to 117 °C. In data set [1], the EC (1.5-fold) was in the range of 0.3 to 1 µM. The “maximum fold (Fold) increase” value with Smn protein is “*** (a fold increase between >1.35 and ≦1.5 is indicated by three stars (***))”.

In the case of `CN1CCN(c2ccc3cc(-c4cn5ccsc5n4)c(=O)oc3n2)CC1` [Cpd 54, 3-(imidazo[2,1-b][1,3]thiazol-6-yl)-7-(4-methylpiperazin-1-yl)-2H-pyrano[2,3-b]pyridin-2-one], the melting point fell in the range of 268 to 272 °C. Also, the EC (1.5-fold) in data set [1] lay in the range of 0.1 to 0.3 µM. Moreover, in the data set on Smn protein, the “EC1.5x for Smn protein expression” value is “*** (an EC1.5× between >0.3 μM and ≦1 μM is indicated by three stars (***))”; the “maximum fold (Fold) increase” value is “**** (a fold increase between >1.5 and ≦1.65 is indicated by four stars (****))”.

For the compound `Cc1ccn2nc(-c3cc4ccc(N5CCN(C)CC5)nc4oc3=O)cc2c1` [Cpd 53, 7-(4-methylpiperazin-1-yl)-3-(5-methylpyrazolo[1,5-a]pyridin-2-yl)-2H-pyrano[2,3-b]pyridin-2-one], the melting point fell in the range of 264 to 268 °C. Moreover, the EC (1.5-fold) in data set [1] was 0.1 to 0.3 µM. Besides, in the data set with Smn protein, the “maximum fold (Fold) increase” value is “*** (a fold increase between >1.35 and ≦1.5 is indicated by three stars (***))”.

The record behind these values is patent US9371336B2, “Compounds for treating spinal muscular atrophy” (PTC Therapeutics Inc., priority 2012, dated 2016).
